Assay results published in publication PMC10548421, “Anticancer Potential of Diruthenium Complexes with Bridging Hydrocarbyl Ligands from Bioactive Alkynols” (Inorganic Chemistry, 2023).

Tests used:
[1] = biological target: bovine serum albumin (BSA) (Bos taurus, UniProt P02769); test: Interaction with BSA (MALDI-TOF MS); type: binding; settings: BSA 30 μM, complex 1 mM, 48 h at 37 °C
Experimental: Bovine serum albumin (BSA, 30 μM in 50 mM NH4HCO3) was incubated with the selected complexes (3a or 3b, 1 mM) at 37 °C for 48 h. Each complex was preliminarily dissolved in 50 μL of methanol. Following the incubation, an aliquot of the protein was adsorbed by repeated aspiration and release (20 times, 10-μL volume) into a ZipTip-C4 pipet tip (Merck, Darmstadt, Germany) that had been pre-equilibrated in 0.1% trifluoroacetic acid (TFA), washed by the equilibrating solution, and eluted into 10 μL of 70% acetonitrile containing 0.1% TFA. The eluate was subsequently subjected to evaporation using a vacuum centrifuge, and the residue was dissolved in 3 μL of 0.1% TFA. A 1 μL aliquot of this solution was deposited on an MSP Big Anchor 96 target plate (Bruker Daltonik, Bremen, Germany), onto which 1 μL of the matrix solution (sinapinic acid, 12 mg/mL in 0.1% TFA and 50% acetonitrile) was immediately superimposed. The sample was then allowed to dry. Mass spectra were acquired using a Microflex LRF20 MALDI-TOF mass spectrometer operated in a linear positive ion mode and controlled using flexControl 3.4 software from Bruker Daltonik). Protein Standard II, from Bruker Daltonik, was used for external calibration. All spectra were subjected to processing by using flexAnalysis 3.4 software from Bruker Daltonik.

[2] = system: MRC-5 normal human lung fibroblast cell line; test: MTT in vitro cytotoxicity, MRC-5 (selectivity); type: cell-based; settings: for IC50: normal cells, MTT, incubation 24 h, mean ± SD
Experimental: (§1) The cytotoxicity assessment was conducted on various human cancer cell lines, including A2780 ovarian carcinoma, A2780R cisplatin-resistant ovarian carcinoma, MCF-7 breast, HOS osteosarcoma, A549 epithelial lung, PANC-1 pancreatic, Caco-2 colorectal, PC-3 prostate adenocarcinoma, and HeLa cervical cell lines. Additionally, the assessment extended to a normal human fetal fibroblast cell line (MRC-5). Cells were obtained from ATCC collection and cultivated according to the producer’s instructions. Stock solutions of the compounds were prepared in DMF immediately before application, and diluted with H2O to achieve the final concentration of 0.1% v/v DMF.[99] The culture media were enriched with 10% fetal calf serum. Subsequently, the cells were exposed to the tested compounds, vehicle (0.1% v/v DMF) and Triton X-100 (1% v/v), during incubation. The conventional MTT assay was carried out following different incubation periods (Tables 5-6). The absorbance was measured at 570 nm by using a spectrophotometer (Infinite M200, Schoeller Instruments, Prague, Czech Republic). The obtained data are presented as the percentage of cell viability with 100% representing negative control treatment (0.1% v/v DMF) and 0% representing the positive control (Triton X-100). The half-maximal inhibitory concentrations (IC50) were determined from dose–response curves using GraphPad Prism 6 software (GraphPad Software, San Diego, USA).

[3] = system: Caco-2 human colorectal adenocarcinoma cell line; test: MTT in vitro cytotoxicity, Caco-2; type: cell-based; settings: incubation 24 h, mean ± SD
Experimental: as §1, with “Additionally,” for “The cytotoxicity assessment was conducted on various human cancer cell lines, including A2780 ovarian carcinoma, A2780R cisplatin-resistant ovarian carcinoma, MCF-7 breast, HOS osteosarcoma, A549 epithelial lung, PANC-1 pancreatic, Caco-2 colorectal, PC-3 prostate adenocarcinoma, and HeLa cervical cell lines. Additionally,”

[4] = system: HOS human osteosarcoma cell line; test: MTT in vitro cytotoxicity, HOS; type: cell-based; settings: incubation 24 h, mean ± SD
Experimental: as §1

[5] = Stability in H2O/CH3OH solution (UV–vis); type: physicochemical; settings: ca. 5:1 v/v
Experimental: […] The percentage of remaining complex in the solution was calculated by considering the change in absorbance at the characteristic wavelength. The identical procedure was employed to evaluate stability in MeOH and DMEM (about 1:5 v/v) solutions. DMEM stands for the cell culture medium (containing 1000 mg/L glucose and L-glutamine, excluding sodium bicarbonate and phenol red; reference D2902-Merck).

A2780 cells = test: ROS production assessment (ROS-ID); type: cell-based, human; settings: A2780, 4 μM, 24 h
Experimental: The A2780 ovarian carcinoma cell line was received from Merck (reference 93112519–1VL) and cultured at 37 °C in an environment with 5% CO2. The cultivation was carried out in complete cell culture medium (RPMI-1640 medium, Merck), which was supplemented with 10% fetal bovine serum (FBS, Merck), 1% L-glutamine (Merck) and 1% penicillin–streptomycin–neomycin (PSN, Merck). For the flow cytometry experiments, three independent duplicates were analyzed using a BD FACSVerse flow cytometer (Becton Dickinson, USA). At least 5 × 10^3 events were recorded for each sample. The same procedure was replicated for the experiments described below. Solutions of the complexes were formulated using the stock solutions (Section 5.1).
ROS-ID Total ROS/Superoxide detection kit (from Enzo Life Sciences, US) was employed to quantify ROS and superoxide generation in A2780 cells following the treatment with the tested compounds. Thus, cells were seeded in a 96-well plate (10^4 cells/well) and incubated with 4 μM solution of complexes for 24 h. A 100 μM solution of pyocyanin, which is a known oxidative-stress inducer, was used as a positive control. […] Finally, a microplate reader Infinite M200Pro (Tecan, Switzerland) was used to measure sample fluorescence (green: Ex. 488 nm/Em. 520 nm, and red: Ex. 550 nm/Em. 610 nm) and three independent experiments were done in triplicates.

[6] = Octanol/water partition coefficient, shake-flask with UV–vis; type: physicochemical; settings: 21 °C
Experimental: Partition coefficients (Pow), defined by the formula Pow = corg/caq, wherein corg and caq denote the molar concentrations of the specific compound in octanol and aqueous phases, respectively, were obtained using the shake-flask method with UV–vis measurements, following a previously described procedure (Table 3).[98] All the operations were carried out at 21 ± 1 °C. The wavelength corresponding to the maximum absorption of each compound within the range 350–430 nm was employed for quantifying using UV–vis techniques.

Chain of bovine serum albumin (BSA) (P02769 25-607): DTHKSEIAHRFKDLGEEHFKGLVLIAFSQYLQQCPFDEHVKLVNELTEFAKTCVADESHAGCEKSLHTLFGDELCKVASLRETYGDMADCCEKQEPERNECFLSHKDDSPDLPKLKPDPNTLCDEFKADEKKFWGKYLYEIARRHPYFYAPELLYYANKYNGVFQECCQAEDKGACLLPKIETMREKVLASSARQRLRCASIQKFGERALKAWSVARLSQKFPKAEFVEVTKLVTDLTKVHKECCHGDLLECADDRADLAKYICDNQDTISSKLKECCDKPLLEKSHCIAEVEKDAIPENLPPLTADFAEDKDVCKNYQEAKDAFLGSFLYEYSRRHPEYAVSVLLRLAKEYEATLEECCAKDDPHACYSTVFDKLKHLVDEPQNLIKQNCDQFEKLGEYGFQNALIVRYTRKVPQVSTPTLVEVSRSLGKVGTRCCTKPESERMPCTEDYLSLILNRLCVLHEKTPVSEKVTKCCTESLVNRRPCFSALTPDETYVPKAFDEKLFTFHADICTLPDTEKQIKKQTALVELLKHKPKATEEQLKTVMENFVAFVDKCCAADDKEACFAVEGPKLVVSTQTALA

| Compound | mass variation of adduct with respect to BSA [1] [Da] | IC50 on healthy MRC-5 cell line compared to the average IC50 values of the cancer cell lines ([2]; 24 h, selectivity) | IC50 [2] [µM] | IC50 [3] [µM] | IC50 [4] [µM] | residual complex % in H2O/CH3OH ([5]; 30 min) [%] | residual complex % in H2O/CH3OH ([5]; 2 h) [%] | residual complex % in H2O/CH3OH ([5]; 18 h) [%] | intracellular ROS levels (in words) (A2780 cells) | Log Pow [6] |
| --- | --- | --- | --- | --- | --- | --- | --- | --- | --- | --- |
| CC12CCC3c4ccc(O)cc4CCC3C1CCC2=C=[CH][Ru]1(=[C]=O)([CH]2C=CC=C2)[C](=O)[Ru+]1(=[C]=O)[CH]1C=CC=C1.F[B-](F)(F)F (mixture of isomers) [3b, [Ru2Cp2(CO)3{μ–η^1:η^2-CH=C=(estradiolylidene)}]BF4] | 483 | approximately 2 fold | 25.9 ± 2.9 | 36 ± 2.7 | 12.6 ± 0.5 | 99 | 92 | 43 | no appreciable effect | 1.24 ± 0.16 |
| F[B-](F)(F)F.O=[C]=[Ru+]1([CH]2C=CC=C2)[C](=O)[Ru]1(=[C]=O)([CH]=C=C1CCCC1)[CH]1C=CC=C1 (stereo not drawn) [3a, [Ru2Cp2(CO)3{μ–η^1:η^2-CH=C=(cyclopentylidene)}]BF4] | 3434 |  | 38.3 ± 3.9 | > 50 | 14.6 ± 0.5 |  | 96 | 78 | noteworthy elevation of intracellular ROS levels | –0.54 ± 0.02 |
